The subject of assay [1] is Streptococcus mutans. In words: Agonist activity at Streptococcus mutans SAB249 ComD receptor assessed as increase in cipB expression at 10 uM after 1 hr by beta-galactosidase reporter gene assay relative to control.
Assay [2] concerns Streptococcus mutans. Briefly: Antagonist activity at Streptococcus mutans SAB249 ComD receptor assessed as inhibition of 18-CSP-induced cipB expression at 10 uM after 1 hr by beta-galactosidase reporter gene assay. For orientation: A reporter such as luciferase makes a cellular process visible.
Assay [3] concerns Streptococcus mutans. Briefly: Activation of comD quorum sensing system in Streptococcus mutans SMCC3 harboring comC deletion mutant assessed as reduction in inhibition zone of Streptococcus anginosus ATCC 33397 at 5 to 100 nM preincubated for 4 hrs followed by Streptococcus anginosus ATCC 33397 addition and measured after 24 hrs.
Assay [4] in a line: Agonist activity at Streptococcus mutans SAB249 ComD receptor assessed as increase in cipB expression after 1 hr by beta-galactosidase reporter gene assay.
The test system of assay [5] is Streptococcus mutans. In words: Activation of comD quorum sensing system in Streptococcus mutans SMCC3 harboring comC deletion mutant assessed as reduction in inhibition zone of Streptococcus anginosus ATCC 33397 at 0.25 nM preincubated for 4 hrs followed by Streptococcus anginosus ATCC 33397 addition and measured after 24 hrs.
In assay [6] the test system is Streptococcus mutans. Briefly: Activation of comD quorum sensing system in Streptococcus mutans SMCC3 harboring comC deletion mutant assessed as reduction in inhibition zone of Streptococcus anginosus ATCC 33397 at 0.25 to 1 nM preincubated for 4 hrs followed by Streptococcus anginosus ATCC 33397 addition and measured after 24 hrs.

One may read the EC50 as the concentration at which the effect is half-maximal.

Active and inactive are the calls of the source. The calls are words filed in the database; no cut-off is given here. Non-standard residues stand in square brackets, D forms with d. Residues, ends and D or L forms follow the SMILES beside them. NMeR = CN[C@@H](CCCNC(=N)N)C(=O)O; NMeF = CN[C@@H](Cc1ccccc1)C(=O)O; NMeT = CN[C@H](C(=O)O)[C@@H](C)O; NMeN = CN[C@@H](CC(N)=O)C(=O)O; NMeL = CN[C@@H](CC(C)C)C(=O)O; NMeS = CN[C@@H](CO)C(=O)O

Regarding `CC(C)C[C@H](NC(=O)[C@H](CCCNC(=N)N)NC(=O)[C@H](Cc1ccccc1)NC(=O)[C@H](Cc1ccccc1)NC(=O)[C@@H](NC(=O)[C@H](CO)NC(=O)[C@H](CC(C)C)NC(=O)[C@@H](N)CO)[C@@H](C)O)C(=O)N[C@@H](Cc1ccccc1)C(=O)N[C@@H](CC(N)=O)C(=O)N[C@@H](CCCNC(=N)N)C(=O)N[C@@H](CO)C(=O)N[C@@H](Cc1ccccc1)C(=O)N(C)[C@H](C(=O)N[C@@H](CCC(N)=O)C(=O)N[C@@H](C)C(=O)O)[C@@H](C)O` (H-SLSTFFRLFNRSF[NMeT]QA-OH), in the assay on Streptococcus mutans [1], the Activity is 38%. For the same compound, the inhibition entry with Streptococcus mutans [2] was “inactive”.

Turning to `CC(C)C[C@H](NC(=O)[C@H](CCCNC(=N)N)NC(=O)[C@H](Cc1ccccc1)NC(=O)[C@H](Cc1ccccc1)NC(=O)[C@@H](NC(=O)[C@H](CO)NC(=O)[C@H](CC(C)C)NC(=O)[C@@H](N)CO)[C@@H](C)O)C(=O)N[C@@H](Cc1ccccc1)C(=O)N[C@@H](CC(N)=O)C(=O)N[C@@H](CCCNC(=N)N)C(=O)N[C@@H](CO)C(=O)N(C)[C@@H](Cc1ccccc1)C(=O)N[C@H](C(=O)N[C@@H](CCC(N)=O)C(=O)N[C@@H](C)C(=O)O)[C@@H](C)O` (H-SLSTFFRLFNRS[NMeF]TQA-OH), the Activity in the assay on Streptococcus mutans [1] stood at 17%. In addition, in the assay with Streptococcus mutans [2], the inhibition entry was “inactive”.

With `CC(C)C[C@H](NC(=O)[C@H](CCCNC(=N)N)NC(=O)[C@H](Cc1ccccc1)NC(=O)[C@H](Cc1ccccc1)NC(=O)[C@@H](NC(=O)[C@H](CO)NC(=O)[C@H](CC(C)C)NC(=O)[C@@H](N)CO)[C@@H](C)O)C(=O)N[C@@H](Cc1ccccc1)C(=O)N[C@@H](CC(N)=O)C(=O)N[C@@H](CCCNC(=N)N)C(=O)N(C)[C@@H](CO)C(=O)N[C@@H](Cc1ccccc1)C(=O)N[C@H](C(=O)N[C@@H](CCC(N)=O)C(=O)N[C@@H](C)C(=O)O)[C@@H](C)O` (H-SLSTFFRLFNR[NMeS]FTQA-OH), the Activity in the assay with Streptococcus mutans [1] stood at 12%. For the same compound, the inhibition result in the assay on Streptococcus mutans [2] is “inactive”.

With `CC(C)C[C@H](NC(=O)[C@H](CCCNC(=N)N)NC(=O)[C@H](Cc1ccccc1)NC(=O)[C@H](Cc1ccccc1)NC(=O)[C@@H](NC(=O)[C@H](CO)NC(=O)[C@H](CC(C)C)NC(=O)[C@@H](N)CO)[C@@H](C)O)C(=O)N[C@@H](Cc1ccccc1)C(=O)N[C@@H](CC(N)=O)C(=O)N(C)[C@@H](CCCNC(=N)N)C(=O)N[C@@H](CO)C(=O)N[C@@H](Cc1ccccc1)C(=O)N[C@H](C(=O)N[C@@H](CCC(N)=O)C(=O)N[C@@H](C)C(=O)O)[C@@H](C)O` (H-SLSTFFRLFN[NMeR]SFTQA-OH), in the assay on Streptococcus mutans [1], the Activity stood at 5%. In addition, the inhibition result in the assay on Streptococcus mutans [2] was “inactive”. Besides, the inhibition entry in the assay with Streptococcus mutans [3] is “Active”.

With `CC(C)C[C@H](NC(=O)[C@H](CCCNC(=N)N)NC(=O)[C@H](Cc1ccccc1)NC(=O)[C@H](Cc1ccccc1)NC(=O)[C@@H](NC(=O)[C@H](CO)NC(=O)[C@H](CC(C)C)NC(=O)[C@@H](N)CO)[C@@H](C)O)C(=O)N[C@@H](Cc1ccccc1)C(=O)N(C)[C@@H](CC(N)=O)C(=O)N[C@@H](CCCNC(=N)N)C(=O)N[C@@H](CO)C(=O)N[C@@H](Cc1ccccc1)C(=O)N[C@H](C(=O)N[C@@H](CCC(N)=O)C(=O)N[C@@H](C)C(=O)O)[C@@H](C)O` (H-SLSTFFRLF[NMeN]RSFTQA-OH), the Activity in the assay with Streptococcus mutans [1] was determined as 11%. The inhibition entry in the assay on Streptococcus mutans [2] was “inactive”.

As to `CC(C)C[C@H](NC(=O)[C@@H](N)CO)C(=O)N[C@@H](CO)C(=O)N[C@H](C(=O)N[C@@H](Cc1ccccc1)C(=O)N[C@@H](Cc1ccccc1)C(=O)N[C@@H](CCCNC(=N)N)C(=O)N[C@@H](CC(C)C)C(=O)N(C)[C@@H](Cc1ccccc1)C(=O)N[C@@H](CC(N)=O)C(=O)N[C@@H](CCCNC(=N)N)C(=O)N[C@@H](CO)C(=O)N[C@@H](Cc1ccccc1)C(=O)N[C@H](C(=O)N[C@@H](CCC(N)=O)C(=O)N[C@@H](C)C(=O)O)[C@@H](C)O)[C@@H](C)O` (H-SLSTFFRL[NMeF]NRSFTQA-OH), the Activity with Streptococcus mutans [1] is 0%. The inhibition result with Streptococcus mutans [2] was “inactive”. Moreover, in the assay on Streptococcus mutans [3], the inhibition entry was “Active”.

As for `CC(C)C[C@H](NC(=O)[C@@H](N)CO)C(=O)N[C@@H](CO)C(=O)N[C@H](C(=O)N[C@@H](Cc1ccccc1)C(=O)N[C@@H](Cc1ccccc1)C(=O)N[C@@H](CCCNC(=N)N)C(=O)N(C)[C@@H](CC(C)C)C(=O)N[C@@H](Cc1ccccc1)C(=O)N[C@@H](CC(N)=O)C(=O)N[C@@H](CCCNC(=N)N)C(=O)N[C@@H](CO)C(=O)N[C@@H](Cc1ccccc1)C(=O)N[C@H](C(=O)N[C@@H](CCC(N)=O)C(=O)N[C@@H](C)C(=O)O)[C@@H](C)O)[C@@H](C)O` (H-SLSTFFR[NMeL]FNRSFTQA-OH), the Activity with Streptococcus mutans [1] amounted to 29%. Moreover, the inhibition entry in the assay with Streptococcus mutans [2] is “inactive”.

On to `CC(C)C[C@H](NC(=O)[C@@H](N)CO)C(=O)N[C@@H](CO)C(=O)N[C@H](C(=O)N[C@@H](Cc1ccccc1)C(=O)N[C@@H](Cc1ccccc1)C(=O)N(C)[C@@H](CCCNC(=N)N)C(=O)N[C@@H](CC(C)C)C(=O)N[C@@H](Cc1ccccc1)C(=O)N[C@@H](CC(N)=O)C(=O)N[C@@H](CCCNC(=N)N)C(=O)N[C@@H](CO)C(=O)N[C@@H](Cc1ccccc1)C(=O)N[C@H](C(=O)N[C@@H](CCC(N)=O)C(=O)N[C@@H](C)C(=O)O)[C@@H](C)O)[C@@H](C)O` (H-SLSTFF[NMeR]LFNRSFTQA-OH), for which, in the assay with Streptococcus mutans [1], the Activity came to 45%. Moreover, in the assay with Streptococcus mutans [2], the inhibition entry is “inactive”.

Regarding `CC(C)C[C@H](NC(=O)[C@H](CCCNC(=N)N)NC(=O)[C@H](Cc1ccccc1)NC(=O)[C@H](Cc1ccccc1)NC(=O)[C@H]([C@@H](C)O)N(C)C(=O)[C@H](CO)NC(=O)[C@H](CC(C)C)NC(=O)[C@@H](N)CO)C(=O)N[C@@H](Cc1ccccc1)C(=O)N[C@@H](CC(N)=O)C(=O)N[C@@H](CCCNC(=N)N)C(=O)N[C@@H](CO)C(=O)N[C@@H](Cc1ccccc1)C(=O)N[C@H](C(=O)N[C@@H](CCC(N)=O)C(=O)N[C@@H](C)C(=O)O)[C@@H](C)O` (H-SLS[NMeT]FFRLFNRSFTQA-OH), the EC50 in assay [4] is more than 1000 nM.

Regarding H-GSLSAFFRAFNAAFTAA-OH, the inhibition entry in the assay with Streptococcus mutans [3] and with Streptococcus mutans [5] was “Active” throughout.

With H-GSLSAFFRAFNAAFTQA-OH, the inhibition result with Streptococcus mutans [3] and in the assay on Streptococcus mutans [5] was “Active” each time.

Regarding H-GSLSTFFRLFNRSFTQA-OH, the EC50 in assay [4] stood at 4.8 nM.

As to H-SGSLSTFFRLFNRSFTQA-OH, the Activity in the assay with Streptococcus mutans [1] worked out at 100%. In addition, the EC50 in assay [4] turned out to be 6.2 nM. For the same compound, the inhibition entry in the assay on Streptococcus mutans [6] was “inactive”.

With H-SLSTFFRLFNRSFTQA-OH, the Activity in the assay with Streptococcus mutans [1] is 100%. The EC50 in assay [4] stood at 7.9 nM.
